5 compounds from patent US10105357B2, “Indication of antibiotic drugs for preparation of cancer inhibition pharmaceutical composition” (LAUNX BIOMEDICAL CO., LTD., priority 2014, dated 2018) can be followed below.

Like-named read-outs stand apart in the source and are kept apart here.

Holding throughout (type): cell-based, human
Series [1] has as its system HI650 (Lung Adenocarcinoma). The series can be described thus: Cell viability analysis, lung cancer HI650. The note with it: for viability at 10 µM: Homo sapiens, NCI-H1650, 72 h.
Series [2] relates to LoVo (Colorectal Adenocarcinoma). The series can be described thus: Cell viability analysis, colon cancer LoVo. The note with it: for viability at 10 µM: Homo sapiens, LoVo, 72 h, read-out: cell viability (survival rate), LoVo, drug 10 μM, 72 hours, WST-1, OD450 nm. A general note: Tetrazolium assays rely on reduction of a dye to a coloured formazan, in cell work by metabolically active cells.

The test system of series [3] is PC3 (p53−) (Prostate Adenocarcinoma). The series can be described thus: Cell viability analysis, prostate cancer PC3. The following applies: for viability at 10 µM: Homo sapiens, 72 h.
Series [4] has as its system HepG2 (Hepatocellular Carcinoma). The series can be described thus: Cell viability analysis, hepatic cancer HepG2. The note with it: for viability at 10 µM: Homo sapiens, HepG2, 72 h.
Series [5] concerns HL-60 (Acute Promyelocytic Leukemia). Put plainly: Cell viability analysis, leukemia HL-60. The following applies: for viability at 10 µM: Homo sapiens, HL-60, 72 h.
Series [6] deals with MKN-45 (Gastric Adenocarcinoma). Put plainly: Cell viability analysis, gastric cancer MKN-45. The following applies: for viability at 10 µM: Homo sapiens, MKN-45, 72 h.
For series [7], the system named is A375 (Amelanotic Melanoma). Put plainly: Cell viability analysis, skin cancer A375. The note with it: for viability at 10 µM: Homo sapiens, A-375, 72 h.
Series [8] deals with TSGH-8301 (Urinary Bladder Carcinoma). The series can be described thus: Cell viability analysis, bladder cancer TSGH-8301. The note with it: for viability at 10 µM: Homo sapiens, 72 h.
Series [9] deals with MCF7 (Mammary Gland, Adenocarcinoma). Put plainly: Cell viability analysis, breast cancer MCF7. The note with it: for viability at 10 µM: Homo sapiens, MCF7, 72 h.
The test system of series [10] is HeLa (Cervix Adenocarcinoma). Put plainly: Cell viability analysis, cervical cancer HeLa. The following applies: for viability at 10 µM: Homo sapiens, HeLa, 72 h.
In another series the test system is cancer cell lines. The series can be described thus: Cell viability analysis (WST-1) on cancer cell lines. The note with it: drug 10 μM, 72 hours, WST-1; Table 3.
The test system of series [11] is AGS (Gastric Adenocarcinoma). The series can be described thus: Cell viability analysis, gastric cancer AGS. The note with it: for viability at 10 µM: Homo sapiens, 72 h.
In series [12] the test system is A549 (Lung Adenocarcinoma). The series can be described thus: Cell viability analysis, lung cancer A549. The note with it: for viability at 10 µM: Homo sapiens, A549, 72 h.
[13] abbreviates: read-out: cell viability (survival rate), H1650, drug 10 μM, 72 hours, WST-1, OD450 nm.
Setting [14] is: read-out: cell viability (survival rate), PC3, drug 10 μM, 72 hours, WST-1, OD450 nm.
The mark [15] stands for this setting: read-out: cell viability (survival rate), HepG2, drug 10 μM, 72 hours, WST-1, OD450 nm.
Where [16] appears, read: read-out: cell viability (survival rate), HL-60, drug 10 μM, 72 hours, WST-1, OD450 nm.
Where [17] appears, read: read-out: cell viability (survival rate), MKN-45, drug 10 μM, 72 hours, WST-1, OD450 nm.
Where [18] appears, read: read-out: cell viability (survival rate), A375, drug 10 μM, 72 hours, WST-1, OD450 nm.
Where [19] appears, read: read-out: cell viability (survival rate), TSGH, drug 10 μM, 72 hours, WST-1, OD450 nm.
The mark [20] stands for this setting: read-out: cell viability (survival rate), MCF7, drug 10 μM, 72 hours, WST-1, OD450 nm.
The mark [21] stands for this setting: read-out: cell viability (survival rate), HeLa, drug 10 μM, 72 hours, WST-1, OD450 nm.
The mark [22] stands for this setting: read-out: cell viability (survival rate), AGS, drug 10 μM, 72 hours, WST-1, OD450 nm.
The mark [23] stands for this setting: read-out: cell viability (survival rate), A549, drug 10 μM, 72 hours, WST-1, OD450 nm.
The mark [24] stands for this setting: drug 10 μM, 72 hours, WST-1, OD450 nm, read-out: cell viability (survival rate), H1650.
The mark [25] stands for this setting: drug 10 μM, 72 hours, WST-1, OD450 nm, read-out: cell viability (survival rate), PC3.
Where [26] appears, read: drug 10 μM, 72 hours, WST-1, OD450 nm, read-out: cell viability (survival rate), HepG2.
The mark [27] stands for this setting: drug 10 μM, 72 hours, WST-1, OD450 nm, read-out: cell viability (survival rate), HL-60.
Where [28] appears, read: drug 10 μM, 72 hours, WST-1, OD450 nm, read-out: cell viability (survival rate), MKN-45.
[29] abbreviates: drug 10 μM, 72 hours, WST-1, OD450 nm, read-out: cell viability (survival rate), A375.
[30] abbreviates: drug 10 μM, 72 hours, WST-1, OD450 nm, read-out: cell viability (survival rate), TSGH.
The mark [31] stands for this setting: drug 10 μM, 72 hours, WST-1, OD450 nm, read-out: cell viability (survival rate), MCF7.
The mark [32] stands for this setting: drug 10 μM, 72 hours, WST-1, OD450 nm, read-out: cell viability (survival rate), HeLa.
The mark [33] stands for this setting: drug 10 μM, 72 hours, WST-1, OD450 nm, read-out: cell viability (survival rate), AGS.
Where [34] appears, read: drug 10 μM, 72 hours, WST-1, OD450 nm, read-out: cell viability (survival rate), A549.

A word on the viability: it is a read-out of living cells in per cent, often relative to untreated cells.

As to `Nc1nc2c(ncn2CCC(CO)CO)c(=O)[nH]1` [Penciclovir], the viability at 10 µM in [1] (setting [13]) was 71.5%; in series [2], 98.5%; in series [3] (setting [14]) it was 106%; in series [4] (setting [15]) it was 95.7%; in [5] (setting [16]), 114%; in series [6] (setting [17]), 98.5%. The viability at 10 µM in series [7] (setting [18]) was 64.2%; in [8] (setting [19]), 79.1%; in series [9] (setting [20]) it was 110%; in [10] (setting [21]), 81.7%; in [11] (setting [22]), 71%; in [12] (setting [23]) it was 74.7%. Further, the “inhibition effect on different cancer cell lines” value in the series with cancer cell lines is “significant inhibition effect”.

On to `C[C@]12C=CC(=O)C=C1CC[C@@H]1[C@@H]2[C@@H](O)C[C@@]2(C)[C@H]1CC[C@]2(O)C(=O)CO` [Prednisolone (Hydroretrocortine), Prednisolone], for which the viability at 10 µM in series [1] (setting [13]) was 82.5%; in series [2], 92.5%; in [3] (setting [14]) it was 83.3%; in [4] (setting [15]) it was 82.7%; in series [5] (setting [16]), 99%; in series [6] (setting [17]) it was 67.8%. Moreover, the viability at 10 µM in [7] (setting [18]) came out at 71%; in series [8] (setting [19]) it was 86.2%; in series [9] (setting [20]), 45.5%; in [10] (setting [21]), 78.7%; in series [11] (setting [22]), 124%; in [12] (setting [23]) it was 71.3%. The “inhibition effect on different cancer cell lines” value with cancer cell lines was “significant inhibition effect”.

Regarding `CCCc1cc(C(N)=S)ccn1` [Protionamide (Prothionamide), Protionamide], the viability at 10 µM in series [1] (setting [24]) amounted to 85%; in [2], 85.6%; in series [3] (setting [25]) it was 45.2%; in [4] (setting [26]), 118%; in [5] (setting [27]) it was 97.6%; in [6] (setting [28]), 77.6%. Also, the viability at 10 µM in series [7] (setting [29]) worked out at 84.9%; in [8] (setting [30]), 103%; in series [9] (setting [31]) it was 51.2%; in [10] (setting [32]), 97.5%; in series [11] (setting [33]), 85.9%; in [12] (setting [34]), 66.2%. The “inhibition effect on different cancer cell lines” value in the series with cancer cell lines was “significant inhibition effect”.

`[O-][n+]1ccccc1[S-].[O-][n+]1ccccc1[S-].[Zn+2]` [Pyrithione zinc]: in [1], the “cell viability (survival rate), H1650” value worked out at 60.6. Also, in [2], the “cell viability (survival rate), LoVo” value was 45.5. For the same compound, the “cell viability (survival rate), PC3” value in series [3] is 24.3. Besides, the “cell viability (survival rate), HepG2” value in [4] turned out to be 70.4. Besides, in series [5], the “cell viability (survival rate), HL-60” value is recorded as 34.5. Further, the “cell viability (survival rate), MKN-45” value in [6] worked out at 57.4. Moreover, the “cell viability (survival rate), A375” value in series [7] is 27.1. Moreover, the “cell viability (survival rate), TSGH” value in series [8] came to 28.7. Moreover, the “cell viability (survival rate), MCF7” value in series [9] was found to be 51.8. In addition, the “cell viability (survival rate), HeLa” value in [10] was 47.4. In addition, the “inhibition effect on different cancer cell lines” value with cancer cell lines is on record as “significant inhibition effect”. Besides, the “cell viability (survival rate), AGS” value in series [11] amounted to 35.4. Besides, in series [12], the “cell viability (survival rate), A549” value stood at 29.7.

For the compound `CC(=O)SCC(Cc1ccccc1)C(=O)NCC(=O)OCc1ccccc1` (centres unmarked) [Racecadotril (Acetorphan), Racecadotril], the viability at 10 µM in series [1] (setting [24]) came out at 82.9%; in series [2], 74.5%; in series [3] (setting [25]), 107%; in series [4] (setting [26]), 88.8%; in series [5] (setting [27]), 122%; in series [6] (setting [28]), 97.4%. In addition, the viability at 10 µM turned out to be 66.2% in series [7] (setting [29]); 65.6% in series [8] (setting [30]); 108% in [9] (setting [31]); 65.6% in series [10] (setting [32]); 84% in series [11] (setting [33]); 95.8% in series [12] (setting [34]). Moreover, in the series on cancer cell lines, the “inhibition effect on different cancer cell lines” value is given as “significant inhibition effect”.
